Data on twelve compounds can be found in publication PMC10641913 (ACS Medicinal Chemistry Letters, 2023).

The IC50 is the concentration at which inhibition is half-maximal. For orientation: EC50 means the concentration that produces a half-maximal response.

Several values for one entry are separate records, joined by “and”; a condition that tells them apart may be missing. Equal entries are not always repeated.

One experiment concerns the target Eg.TRPMPZQ (Echinococcus granulosus, UniProt W6UVV9). The experiment is classed as cell-based. Conditions: Eg.TRPMPZQ and Mc.TRPMPZQ; for activity at cestode TRPMPZQ orthologs (in words): both cestode channels. On the procedure: (§1) This was done using a fluorescence-based reporter assay to measure changes in cytosolic Ca^2+ in HEK293 cells transiently expressing the individual TRPMPZQ ion channels.
(§2) Sprague et. al. Supporting Information
(§3) Cell Culture and transfection. Activation of the three TRPMPZQ orthologs1 (Sm.TRPMPZQ, Eg.TRPMPZQ and Mc.TRPMPZQ) was measured using a Ca2+ reporter assay, following transient transfection of codon-optimized constructs (Genscript) into HEK293 cells.
(§4) The HEK293 cell line (ATCC CRL-1573.3) was authenticated by STR profiling (ATCC), and cells were evaluated for mycoplasma contamination by monthly scheduled testing (LookOut® Mycoplasma PCR Detection Kit, Sigma). HEK293 cells were cultured at 37 °C in a humidified incubator in Dulbecco’s Modified Eagle Medium (DMEM) supplemented with 10% fetal bovine serum (FBS), penicillin (100 units/mL), streptomycin (100 μg/mL), and L-glutamine (290 μg/mL). Cells were transfected using Lipofectamine-2000 at a density of 3x10^6 cells per petri dish (100 mm diameter) 24 h prior to replating into 384 well plates for functional assays.
(§5) Ca2+ imaging assays. Ca2+ imaging assays were performed using a Fluorescence Imaging Plate Reader (FLIPR TETRA, Molecular Devices). HEK293 cells (naïve or transfected) were seeded (20,000 cells/well) in a black-walled clear-bottomed poly-d-lysine coated 384-well plate (Greiner Bio-One) in DMEM growth media supplemented with 10% FBS. After 24 h, growth medium was removed, and cells were loaded with a fluorescent Ca2+ indicator (Fluo-4 NW dye, Invitrogen) by incubation (20 µL per well, 1 h at 37°C) in Hanks' balanced salt solution (HBSS) assay buffer containing probenecid (2.5 mM) and HEPES (20 mM). Drug dilutions were prepared in assay buffer, without probenecid and dye, in ‘V’-shape 384-well plates (Greiner Bio-one, Germany). After indicator loading, the Ca2+ assay was performed at room temperature. Basal fluorescence was monitored for 20 s, then 5 μL of each drug added, and the signal (raw fluorescence units) was monitored over an additional 250 s. Changes in fluorescence were calculated by subtracting the average basal fluorescence (averaged values between 0 to 20 s) from the maximum fluorescence value. These values were normalized to the response of (±)-PZQ at the corresponding TRPMPZQ channel and plotted. Concentration-response curves were generated in GraphPad Prism (v.
(§6) 9.5.1) using the default three -parameter curve fitting and constraining the bottom of the curve to 0%. The reported EC 50 values represent the mean ± SEM of n ≥ 3 independent transfections. […]

The next experiment has as its system H. nana. Details: key: “+++” indicates a complete reduction of worms at 25 mg/kg dosing (×1); “++” indicates complete reduction of worms at 500 mg/kg dosing (×1); “+” indicates less than 90% worm reduction at 500 mg/kg dosing (×1); “0” indicates no effect at 500 mg/kg dosing (×1). Conditions: mouse model, dosing ×1; ref [1]; cited from earlier work.
For experiment [1], the system named is S. mansoni. The conditions noted are these: ref [1]; cited from earlier work.
The next experiment deals with Sm.TRPMPZQ (Schistosoma mansoni, UniProt A0A5K4F0X5). As to the kind of experiment: cell-based. The class given is cell-based. Conditions: for this work: EC50 (μM) Sm.TRPMPZQ / EC50: HEK293 transient expression, mean ± SEM, n ≥ 3 independent transfections; for EC50: read-out: this work: EC50 (μM) Sm.TRPMPZQ. The method, then:
as §1, §2, §3, §4, §5, §6

The test system of experiment [2] is S. mansoni. Also noted: key: “+++” indicates a complete reduction of worms at 50 mg/kg dosing (×5); “++” indicates complete reduction of worms at 500 mg/kg dosing (×5); “+” indicates less than 90% worm reduction at 500 mg/kg dosing (×5); “0” indicates no effect at 500 mg/kg dosing (×5). The conditions noted are these: mouse model, dosing ×5; ref [1]; cited from earlier work.

The subject of experiment [3] is E. multilocularis protoscoleces. The experiment in a line: Cestode motility assay on protoscoleces. The conditions noted are these: for IC50: Echinococcus multilocularis. The experiment is classed as cell-based, Echinococcus multilocularis. The method, then: To determine IC50 values, concentration–response curves were obtained at multiple time points (Figure 2E–G).
Figure 2 E. multilocularis protoscoleces after treatment with (A) DMSO, (B) (±)-PZQ (1 μM), (C) (R)-2 (30 μM), and (D) (S)-2 (100 μM). (E–G) Concentration–response motility graphs of E. multilocularis protosoleces after treatment with (±)-PZQ (blue circles), (R)-2 (red circles), and (S)-2 (purple circles) after (E) 0.5 h, (F) 12 h, and (G) 24 h. Data are plotted as % motility vs vehicle (DMSO) control (mean ± SEM). […]
Cestode motility assays . Protoscoleces of E. multilocularis strain MB17 were isolated from metacestode material grown in experimentally infected gerbils (kindly provided by Prof. Dr. K. Brehm, University of Würzburg, Germany). Extraction and acti vation of protoscoleces, as well as subsequent motility assays were performed as described previously. 2 In short, protoscoleces were activated by 10% DMSO for 3 h at 37°C, in a humid atmosphere, with 5% CO 2 and left to recover overnight in DMEM (Biochrom, Berlin, Germany) supplemented with 10% FBS (Biochrom) at 37°C, in a humid atmosphere, with 5% CO 2. The next day, 25 protoscoleces were distributed into individual wells of a white, flat -bottom 384 well plate (Huberlab, Aesch, Switzerland). PZQ analogs were added […]
The assay plate was sealed with a clear view seal foil (Huberlab), and motility was measured in a live cell imaging system (Nikon TE2000E, Hamatsu ORCA ER

Chain of Sm.TRPMPZQ (A0A5K4F0X5 entry or part of it): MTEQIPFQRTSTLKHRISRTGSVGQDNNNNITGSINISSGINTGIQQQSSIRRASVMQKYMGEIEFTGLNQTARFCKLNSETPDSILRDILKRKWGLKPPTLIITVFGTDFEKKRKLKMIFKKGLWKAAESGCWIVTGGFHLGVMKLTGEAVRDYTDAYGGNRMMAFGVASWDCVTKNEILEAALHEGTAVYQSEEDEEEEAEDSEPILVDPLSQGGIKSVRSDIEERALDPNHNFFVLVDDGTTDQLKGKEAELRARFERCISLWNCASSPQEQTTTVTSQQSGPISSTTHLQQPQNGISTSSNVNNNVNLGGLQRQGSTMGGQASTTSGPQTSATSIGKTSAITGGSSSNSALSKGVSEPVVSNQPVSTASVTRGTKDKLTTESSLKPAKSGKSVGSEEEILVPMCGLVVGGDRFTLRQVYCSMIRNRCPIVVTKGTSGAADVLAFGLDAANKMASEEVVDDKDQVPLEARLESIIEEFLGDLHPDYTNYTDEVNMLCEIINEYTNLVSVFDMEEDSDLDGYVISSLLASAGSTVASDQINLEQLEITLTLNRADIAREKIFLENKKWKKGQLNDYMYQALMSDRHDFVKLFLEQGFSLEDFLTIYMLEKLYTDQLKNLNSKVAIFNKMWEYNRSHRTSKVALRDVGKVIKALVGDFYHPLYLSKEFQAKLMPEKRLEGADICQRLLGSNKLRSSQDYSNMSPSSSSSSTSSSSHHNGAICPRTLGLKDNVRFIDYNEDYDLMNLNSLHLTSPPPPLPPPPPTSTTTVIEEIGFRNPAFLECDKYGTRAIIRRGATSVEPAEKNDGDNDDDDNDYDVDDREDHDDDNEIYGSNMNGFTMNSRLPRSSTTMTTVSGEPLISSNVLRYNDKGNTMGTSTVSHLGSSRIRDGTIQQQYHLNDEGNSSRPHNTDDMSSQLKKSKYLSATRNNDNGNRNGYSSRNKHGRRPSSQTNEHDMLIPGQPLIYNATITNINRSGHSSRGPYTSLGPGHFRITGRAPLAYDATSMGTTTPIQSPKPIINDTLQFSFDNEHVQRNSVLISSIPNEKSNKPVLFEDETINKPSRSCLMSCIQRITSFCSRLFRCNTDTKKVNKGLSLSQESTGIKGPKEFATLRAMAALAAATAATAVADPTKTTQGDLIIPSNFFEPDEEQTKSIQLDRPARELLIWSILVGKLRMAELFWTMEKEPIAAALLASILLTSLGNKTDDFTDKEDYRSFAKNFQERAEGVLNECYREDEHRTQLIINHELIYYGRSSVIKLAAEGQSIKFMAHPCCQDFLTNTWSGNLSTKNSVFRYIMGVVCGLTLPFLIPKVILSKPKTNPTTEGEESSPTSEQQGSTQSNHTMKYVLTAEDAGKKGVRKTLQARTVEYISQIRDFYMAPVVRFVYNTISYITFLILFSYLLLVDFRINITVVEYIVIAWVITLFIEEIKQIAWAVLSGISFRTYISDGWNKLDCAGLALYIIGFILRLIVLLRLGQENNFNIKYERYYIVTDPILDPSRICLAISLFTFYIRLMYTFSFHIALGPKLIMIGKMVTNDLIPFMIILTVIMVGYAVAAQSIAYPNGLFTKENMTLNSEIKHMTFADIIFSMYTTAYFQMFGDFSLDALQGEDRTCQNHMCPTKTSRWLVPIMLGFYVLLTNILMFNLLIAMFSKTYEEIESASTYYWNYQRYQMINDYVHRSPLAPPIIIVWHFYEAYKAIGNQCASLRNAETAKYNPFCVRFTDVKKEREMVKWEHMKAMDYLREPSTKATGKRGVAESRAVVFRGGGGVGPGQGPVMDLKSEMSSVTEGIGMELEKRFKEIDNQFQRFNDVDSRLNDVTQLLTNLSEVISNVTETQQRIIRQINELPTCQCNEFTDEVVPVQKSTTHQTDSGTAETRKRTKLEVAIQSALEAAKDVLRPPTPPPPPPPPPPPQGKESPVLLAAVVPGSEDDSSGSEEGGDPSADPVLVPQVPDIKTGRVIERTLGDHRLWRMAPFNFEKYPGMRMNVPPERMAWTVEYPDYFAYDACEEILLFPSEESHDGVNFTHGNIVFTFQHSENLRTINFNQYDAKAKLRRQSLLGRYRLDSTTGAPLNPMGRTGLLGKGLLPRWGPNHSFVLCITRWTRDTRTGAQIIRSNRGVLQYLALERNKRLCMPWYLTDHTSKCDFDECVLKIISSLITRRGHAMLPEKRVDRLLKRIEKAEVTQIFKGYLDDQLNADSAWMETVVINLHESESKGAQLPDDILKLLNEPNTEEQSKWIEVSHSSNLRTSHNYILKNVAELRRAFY
Chain of Eg.TRPMPZQ (W6UVV9 entry or part of it): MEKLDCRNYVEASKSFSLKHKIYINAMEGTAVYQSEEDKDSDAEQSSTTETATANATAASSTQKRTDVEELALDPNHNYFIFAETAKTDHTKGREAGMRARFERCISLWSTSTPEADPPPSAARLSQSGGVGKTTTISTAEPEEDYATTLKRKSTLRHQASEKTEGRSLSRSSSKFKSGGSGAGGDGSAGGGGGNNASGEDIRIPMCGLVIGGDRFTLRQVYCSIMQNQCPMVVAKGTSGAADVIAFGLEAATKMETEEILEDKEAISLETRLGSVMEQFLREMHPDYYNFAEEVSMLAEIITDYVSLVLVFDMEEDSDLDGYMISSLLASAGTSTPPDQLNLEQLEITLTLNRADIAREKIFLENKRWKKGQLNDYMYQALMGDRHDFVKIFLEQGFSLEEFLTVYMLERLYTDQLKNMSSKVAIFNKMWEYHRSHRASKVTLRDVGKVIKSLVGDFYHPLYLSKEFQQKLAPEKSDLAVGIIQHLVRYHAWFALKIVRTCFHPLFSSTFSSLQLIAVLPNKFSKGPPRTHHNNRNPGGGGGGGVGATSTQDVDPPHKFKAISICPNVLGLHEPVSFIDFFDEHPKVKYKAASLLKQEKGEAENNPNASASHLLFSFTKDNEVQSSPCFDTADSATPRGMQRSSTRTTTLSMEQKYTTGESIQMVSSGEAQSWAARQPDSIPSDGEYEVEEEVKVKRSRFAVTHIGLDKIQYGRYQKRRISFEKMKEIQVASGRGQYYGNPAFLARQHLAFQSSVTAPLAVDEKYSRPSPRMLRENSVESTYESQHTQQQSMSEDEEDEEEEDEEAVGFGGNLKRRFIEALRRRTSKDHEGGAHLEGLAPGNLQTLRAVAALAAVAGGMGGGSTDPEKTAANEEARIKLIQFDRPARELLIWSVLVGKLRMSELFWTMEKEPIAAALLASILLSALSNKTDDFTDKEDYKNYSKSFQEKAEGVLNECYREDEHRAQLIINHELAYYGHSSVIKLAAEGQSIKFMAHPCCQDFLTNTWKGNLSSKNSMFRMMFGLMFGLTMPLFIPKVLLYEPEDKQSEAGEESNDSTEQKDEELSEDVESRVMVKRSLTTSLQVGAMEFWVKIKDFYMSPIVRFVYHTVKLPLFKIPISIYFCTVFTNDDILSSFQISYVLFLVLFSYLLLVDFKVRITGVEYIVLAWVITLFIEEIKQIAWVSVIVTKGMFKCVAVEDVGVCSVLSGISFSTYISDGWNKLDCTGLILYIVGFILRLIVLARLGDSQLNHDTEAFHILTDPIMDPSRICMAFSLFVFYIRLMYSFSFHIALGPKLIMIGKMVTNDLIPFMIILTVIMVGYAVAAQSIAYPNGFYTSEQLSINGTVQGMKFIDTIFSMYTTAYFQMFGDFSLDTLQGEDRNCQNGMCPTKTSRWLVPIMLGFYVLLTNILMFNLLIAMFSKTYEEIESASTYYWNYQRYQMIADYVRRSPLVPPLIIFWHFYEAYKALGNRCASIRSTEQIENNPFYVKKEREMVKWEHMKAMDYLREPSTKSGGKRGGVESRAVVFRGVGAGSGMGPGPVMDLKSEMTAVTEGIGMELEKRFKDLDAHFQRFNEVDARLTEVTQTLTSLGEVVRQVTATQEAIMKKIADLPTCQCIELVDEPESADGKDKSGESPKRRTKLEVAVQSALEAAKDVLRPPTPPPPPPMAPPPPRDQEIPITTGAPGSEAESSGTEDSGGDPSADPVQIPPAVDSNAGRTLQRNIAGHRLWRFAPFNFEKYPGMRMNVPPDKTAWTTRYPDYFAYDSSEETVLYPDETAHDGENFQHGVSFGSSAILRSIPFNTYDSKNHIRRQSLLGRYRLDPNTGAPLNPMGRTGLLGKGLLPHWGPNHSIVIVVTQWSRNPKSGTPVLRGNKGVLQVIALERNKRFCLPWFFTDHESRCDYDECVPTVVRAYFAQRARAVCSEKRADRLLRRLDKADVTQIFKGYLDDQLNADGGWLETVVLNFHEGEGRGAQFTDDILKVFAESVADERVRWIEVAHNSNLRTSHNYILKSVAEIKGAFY

Turning to `O=C(c1cccnc1)N1CC(=O)N2CCc3ccccc3C2C1` (racemic) [(±)-2], the “activity at cestode TRPMPZQ orthologs (in words)” value on Eg.TRPMPZQ was “low-micromolar potency”. For the same compound, in the experiment with H. nana, the “previous studies H. nana in vivo (activity grade, worm reduction)” value is given as “+++”. The “previous studies S. mansoni in vitro (activity grade)” value (shortened to “previous studies S. mansoni in vitro”) in the experiment on S. mansoni [1] was “+ (“+” indicates a less than maximal effect at ≤320 μM)”. In addition, on Sm.TRPMPZQ, the “activity at Sm.TRPMPZQ (in words)” value is recorded as “little activity” and the “this work: EC50 (μM) Sm.TRPMPZQ” value is “inactive”. The “previous studies S. mansoni in vivo (activity grade, worm reduction)” value in the experiment with S. mansoni [2] is recorded as “+”.
For the compound `O=C(c1cccnc1)N1CC(=O)N2CCc3ccccc3[C@@H]2C1` [(R)-2], the “previous studies H. nana in vivo (activity grade, worm reduction)” value with H. nana is “+++”. Besides, the “previous studies S. mansoni in vitro” value in the experiment with S. mansoni [1] is reported as 0 (“0” indicates no effect at ≤320 μM). The IC50 in experiment [3] (after 24 h) was around 3 µM. Also, the EC50 on Sm.TRPMPZQ is above 100 µM. In addition, in the experiment with S. mansoni [2], the “previous studies S. mansoni in vivo (activity grade, worm reduction)” value is given as “++”.
In the case of `O=C(C1CCCCC1)N1CC(=O)N2CCc3ccccc3[C@@H]2C1` [(R)-PZQ, reference compound], the “previous studies H. nana in vivo (activity grade, worm reduction)” value with H. nana is reported as “+++”. Besides, in the experiment on S. mansoni [1], the “previous studies S. mansoni in vitro” value is listed as “+++ (“+++” indicates a maximal effect ≤3.2 μM)”. Also, in the experiment on S. mansoni [2], the “previous studies S. mansoni in vivo (activity grade, worm reduction)” value was “+++”.
Turning to `O=C(c1cccnc1)N1CC(=O)N2CCc3ccccc3[C@H]2C1` [(S)-2], the “previous studies H. nana in vivo (activity grade, worm reduction)” value with H. nana was “++”. Besides, in the experiment with S. mansoni [1], the “previous studies S. mansoni in vitro” value is 0 (“0” indicates no effect at ≤320 μM). Also, the IC50 in experiment [3] (after 24 h) was around 30 µM. Besides, the “this work: EC50 (μM) Sm.TRPMPZQ” value at Sm.TRPMPZQ is “inactive”. Also, the “previous studies S. mansoni in vivo (activity grade, worm reduction)” value in the experiment on S. mansoni [2] is 0.
Regarding `O=C(C1CCCCC1)N1CC(=O)N2CCc3ccccc3[C@H]2C1` [(S)-PZQ, reference compound], the “previous studies H. nana in vivo (activity grade, worm reduction)” value in the experiment with H. nana is listed as “++”. In the experiment on S. mansoni [1], the “previous studies S. mansoni in vitro” value was “++ (“++” indicates a maximal effect ≤320 μM)”. For the same compound, the “previous studies S. mansoni in vivo (activity grade, worm reduction)” value in the experiment on S. mansoni [2] is “+”.
For `O=C(C1CCCCC1)N1CC(=O)N2CCc3ccccc3C2C1` (stereo not shown) [Compound 1, praziquantel], the “previous studies H. nana in vivo (activity grade, worm reduction)” value with H. nana is recorded as “+++”. Moreover, the “previous studies S. mansoni in vitro” value in the experiment on S. mansoni [1] is “+++ (“+++” indicates a maximal effect ≤3.2 μM)”. Moreover, the “contraction of the protoscoleces (in words)” value in experiment [3] ((±)-PZQ 1 μM, (R)-2 30 μM, (S)-2 100 μM, compared with vehicle control) is recorded as “sustained contraction”. The same compound gave a half-maximal inhibitory concentration (IC50) in experiment [3] (12 h postincubation) of around 0.1 µM. Also, in experiment [3] (after 24 h), the “effect of prolonged treatment on protoscoleces (in words)” value is on record as “toxic”. In addition, the “effect of low concentrations on motility (in words)” value in experiment [3] (low concentrations, early time points (0.5 h)) is given as “stimulated motility”. For the same compound, the “previous studies S. mansoni in vivo (activity grade, worm reduction)” value with S. mansoni [2] is “+++”.
For the compound `O=C(c1ccc([N+](=O)[O-])cc1)N1CC(=O)N2CCc3ccccc3C2C1` (stereo not shown) [Compound 3], the “previous studies H. nana in vivo (activity grade, worm reduction)” value in the experiment with H. nana was “++”. Also, the “previous studies S. mansoni in vitro” value in the experiment on S. mansoni [1] is 0 (“0” indicates no effect at ≤320 μM). Moreover, at Sm.TRPMPZQ, the “this work: EC50 (μM) Sm.TRPMPZQ” value was “inactive”. In the experiment with S. mansoni [2], the “previous studies S. mansoni in vivo (activity grade, worm reduction)” value is on record as “+”.
Take `CNc1ccc(C(=O)N2CC(=O)N3CCc4ccccc4C3C2)cc1` (stereo not shown) [Compound 4]: in the experiment with H. nana, the “previous studies H. nana in vivo (activity grade, worm reduction)” value is listed as “+++”. In addition, in the experiment with S. mansoni [1], the “previous studies S. mansoni in vitro” value was 0 (“0” indicates no effect at ≤320 μM). Moreover, on Sm.TRPMPZQ, the “this work: EC50 (μM) Sm.TRPMPZQ” value was “inactive”. The “previous studies S. mansoni in vivo (activity grade, worm reduction)” value in the experiment on S. mansoni [2] is reported as “++”.
On to `CN(C)c1ccc(C(=O)N2CC(=O)N3CCc4ccccc4C3C2)cc1` (stereo not shown) [Compound 5], for which, in the experiment on H. nana, the “previous studies H. nana in vivo (activity grade, worm reduction)” value is on record as “+++”. The “previous studies S. mansoni in vitro” value in the experiment on S. mansoni [1] was 0 (“0” indicates no effect at ≤320 μM). Further, the “this work: EC50 (μM) Sm.TRPMPZQ” value on Sm.TRPMPZQ was “inactive”. Besides, the “previous studies S. mansoni in vivo (activity grade, worm reduction)” value with S. mansoni [2] was “++”.
For the compound `Nc1ccc(C(=O)N2CC(=O)N3CCc4ccccc4C3C2)cc1` (stereo not shown) [Compound 6], in the experiment with H. nana, the “previous studies H. nana in vivo (activity grade, worm reduction)” value is “+++”. Besides, the “previous studies S. mansoni in vitro” value with S. mansoni [1] was “++ (“++” indicates a maximal effect ≤320 μM)”. For the same compound, the EC50 on Sm.TRPMPZQ was 11.6 µM and 12 µM. In the experiment with S. mansoni [2], the “previous studies S. mansoni in vivo (activity grade, worm reduction)” value is “++”.
Take `N[C@H]1CC[C@@H](C(=O)N2CC(=O)N3CCc4ccccc4C3C2)CC1` (stereo partly shown) [Compound 7]: the “activity at cestode TRPMPZQ orthologs (in words)” value on Eg.TRPMPZQ is “only weakly active”. Also, in the experiment on H. nana, the “previous studies H. nana in vivo (activity grade, worm reduction)” value is given as “+”. Besides, the “previous studies S. mansoni in vitro” value with S. mansoni [1] is 0 (“0” indicates no effect at ≤320 μM). Besides, on Sm.TRPMPZQ, the “activity at Sm.TRPMPZQ (in words)” value is “lacked activity” and the “this work: EC50 (μM) Sm.TRPMPZQ” value was “inactive”. Further, in the experiment with S. mansoni [2], the “previous studies S. mansoni in vivo (activity grade, worm reduction)” value was 0.
Consider `O=C(C1CC1)N1CC(=O)N2CCc3ccccc3C2C1` (stereo not shown) [Compound 8], for which, on Eg.TRPMPZQ, the “concentrations activating both cestode TRPMPZQ representatives” value was above 10 µM and the “activity at cestode TRPMPZQ orthologs (in words)” value is on record as “clearly active”. Also, the “previous studies H. nana in vivo (activity grade, worm reduction)” value in the experiment on H. nana is “++”. Also, the “previous studies S. mansoni in vitro” value in the experiment with S. mansoni [1] was 0 (“0” indicates no effect at ≤320 μM). In addition, on Sm.TRPMPZQ, the “activity at Sm.TRPMPZQ (in words)” value is recorded as “Little activity” and the “this work: EC50 (μM) Sm.TRPMPZQ” value was “inactive”. For the same compound, the “previous studies S. mansoni in vivo (activity grade, worm reduction)” value with S. mansoni [2] is “+”.
